This passage reports inhibition results from patent publication US8349827B2, “Substituted dipyrido-pyrimido-diazepine and benzo-pyrido-pyrimido compounds” (ArQule, Inc., priority 2009, dated 2013).

The term inhibition denotes the percentage by which the read-out fell short of the control.

Bounds are passed on as bounds.

The target of one assay is ABL (Homo sapiens, UniProt P00519). Description: ABL Kinase Activity Assay (Elisa), ABL. Format: biochemical. Particulars: ATP 100 μM, read-out: Abl Enzymetic assay (Elisa) % inhibition. As to the method: (§1) ABL Kinase Activity Assay
(§2) The disclosed compounds were assayed for their ability to inhibit the activity of ABL kinase. Nunc Maxisorb plates were coated with streptavidin by overnight incubation with 100 μL per well of 1 μg/ml streptavidin in DPBS. Prior to the experiment, the plates were washed with TBST (3×200 μL) and blocked for at least 3 hours by adding 150 μL of 5% BSA/TBST. The plates were washed with TBST (3×200 μL/well) and left dry immediately before the capture step.
(§3) The disclosed test compounds and controls (Gleevec) were prepared using the following assay buffer@10× desired final concentration (50 mM Tris pH 7.0, 0.02 mg/ml BSA, 10 mM MgCl2, 0.1 mM Na3VO4, 1 mM EGTA, 0.01% NP-40, 1 mM DTT in 10% glycerol/water). In a reaction plate, 5 μl test article (or control) and 30 μl ABL or ABL T315I (0.089 nM final concentration, in the above buffer) were added rapidly. The plate was incubated for 20 minutes. To the reaction plate was added ATP (100 μM final concentration) and AblTide (128 nM final concentration) in a volume of 15 μl. The plate was incubated at room temperature for one hour.
(§4) From the reaction plate, 40 μl was transferred to the streptavidin coated plate. The capture plate was incubated at room temperature for 30 minutes, then washed 3× with TBST. To the capture plate was added 100 μL/well of cell signaling anti-phospho tyrosine at a dilution of 1:3000 in 2% BSA/TBST. The plate was incubated for two hours at room temperature then washed 3× with TBST. To the capture plate was added 100 μL/well of alkaline phosphatase tagged goat anti mouse antibody at a dilution of 1:4000 in 2% BSA/TBST. The plate was incubated for one hour at room temperature then washed 3× with TBST.
(§5) The fluorescent readout was initiated by the addition of 100 μl/well of Attophos reagent (6 mg/10 mL). The reading was done on the Perkin Elmer Envision system.

The next assay concerns MDA-MB-231. Description: MTS assay, MDA-MB-231 cells. It counts as cell-based. As to conditions: Homo sapiens, 72 hours. On the procedure:
(§6) Cells were maintained at 37° C., 5% CO2 in DMEM media supplemented with 1% fetal bovine serum, penicillin/streptomycin and fungizone (Invitrogen). Cells were seeded into 96-well tissue culture plates at 3000 per well and cultured at 37° C. for 18 hours. Test compounds were dissolved and diluted to 300× in DMSO then diluted 1:40 in DMEM. Cells were incubated with test compounds for 72 hours followed by incubation with tetrazolium compound (3-(4,5-dimethylthiazol-2-yl)-5-(3-carboxymethoxyphenyl)-2-(4-sulfophenyl)-2H-tetrazolium, inner salt; MTS) and the electron coupling reagent, phenazine methosulfate (PMS) for 4 hours. […] The ability of compounds to inhibit cell growth in this assay is correlated with the reduction of dehydrogenase enzyme activity found in metabolically active cells. The measurement of the absorbance of the formazan was assessed using an ENVISION™ (Perkin Elmer) microplate reader at 492 nm. The calculated IC50 value is the concentration of the test compound that causes a 50% decrease in the absorbance.
(Formazan colour is commonly taken as a measure of viable cells.)

The next assay has as its system DLD-1. The assay is described as follows: MTS assay, DLD-1 cells. As to conditions: Homo sapiens, 72 hours. It counts as cell-based. On the procedure:
as §6

The next assay has as its system PC-3. The assay is described as follows: MTS assay, PC-3 cells. Particulars: Homo sapiens, 72 hours. Format: cell-based. On the procedure: as §6
The target of another assay is ABL T315I (Homo sapiens, UniProt P00519, T315I). The assay is described as follows: ABL Kinase Activity Assay (Elisa), ABL T315I. Format: biochemical. Particulars: ATP 100 μM, read-out: Abl(T315I) Enzymetic assay (Elisa) % inhibition. As to the method: as §1, §2, §3, §4, §5
The test system of another assay is NCI-H1299. Description: MTS assay, NCI-H1299 cells. It counts as cell-based. Particulars: Homo sapiens, 72 hours. On the procedure: as §6
Another assay concerns KATO III. Description: MTS assay, KATO III cells. It counts as cell-based. Particulars: Homo sapiens, 72 hours. As to the method:
as §6

A further assay concerns PACA-2. The assay is described as follows: MTS assay, PACA-2 cells. It counts as cell-based. Particulars: 72 hours. On the procedure: as §6

As for `O=C1CCCN1CCCNc1ncc2c(n1)-c1cccnc1Nc1cnccc1-2` [Example 4, 1-[3-(9H-dipyrido[2,3-b:4′,3′-f]pyrimido[4,5-d]azepin-2-ylamino)propyl]pyrrolidin-2-one], the inhibition at 10 µM on ABL was 50 to 79%; in the assay with MDA-MB-231, less than 50%; with DLD-1, less than 50%; in the assay on PC-3, less than 50%; on ABL T315I, 80 to 100%; in the assay with NCI-H1299 it was less than 50%. The compound further returned an inhibition at 10 µM with KATO III of less than 50%.
Turning to `Fc1ccc(CNc2ncc3c(n2)-c2cccnc2Nc2cnccc2-3)c(Cl)c1` [Example 10, N-(2-chloro-4-fluorobenzyl)-9H-dipyrido[2,3-b:4′,3′-f]pyrimido[4,5-d]azepin-2-amine], the inhibition at 10 µM is 80 to 100% on ABL; less than 50% in the assay with MDA-MB-231; less than 50% in the assay on PC-3; 80 to 100% on ABL T315I; less than 50% in the assay with NCI-H1299.
In the case of `CC(CO)Nc1ncc2c(n1)-c1cccnc1Nc1cnccc1-2` (stereo not shown) [Example 17, 2-(9H-dipyrido[2,3-b:4′,3′-f]pyrimido[4,5-d]azepin-2-ylamino)propan-1-ol], the inhibition at 10 µM at ABL is 80 to 100%; in the assay on PC-3, less than 50%; at ABL T315I, 80 to 100%; in the assay on KATO III it was less than 50%.
For the compound `CCC(CC)Nc1ncc2c(n1)-c1cccnc1Nc1cnccc1-2` [Example 18, N-(1-ethylpropyl)-9H-dipyrido[2,3-b:4′,3′-f]pyrimido[4,5-d]azepin-2-amine], the inhibition at 10 µM is 80 to 100% on ABL; less than 50% in the assay on MDA-MB-231; less than 50% with DLD-1; less than 50% with PC-3; 80 to 100% at ABL T315I; less than 50% in the assay with NCI-H1299. Besides, the inhibition at 10 µM in the assay on KATO III lay within 50 to 79%.
In the case of `Cc1cccc(CCNc2ncc3c(n2)-c2cccnc2Nc2cnccc2-3)c1` [Example 41, N-[2-(3-methylphenyl)ethyl]-9H-dipyrido[2,3-b:4′,3′-f]pyrimido[4,5-d]azepin-2-amine], the inhibition at 10 µM on ABL is 80 to 100%; in the assay with MDA-MB-231 it was less than 50%; in the assay on DLD-1, less than 50%; in the assay on PACA-2 it was less than 50%; at ABL T315I it was 80 to 100%; in the assay with NCI-H1299, less than 50%. This compound had an inhibition at 10 µM in the assay on KATO III of 50 to 79%.
Take `COc1ccc(CNc2ncc3c(n2)-c2cccnc2Nc2cnccc2-3)cc1OC` [Example 47, N-(3,4-dimethoxybenzyl)-9H-dipyrido[2,3-b:4′,3′-f]pyrimido[4,5-d]azepin-2-amine]: the inhibition at 10 µM at ABL was 80 to 100%; in the assay with MDA-MB-231, less than 50%; in the assay on DLD-1, 50 to 79%; with PACA-2, less than 50%; on ABL T315I, 80 to 100%; in the assay on NCI-H1299, 50 to 79%. The compound further showed an inhibition at 10 µM with KATO III of less than 50%.
With `c1ccc(CNc2ncc3c(n2)-c2cccnc2Nc2cnccc2-3)nc1` [Example 49, N-(pyridin-2-ylmethyl)-9H-dipyrido[2,3-b:4′,3′-f]pyrimido[4,5-d]azepin-2-amine], the inhibition at 10 µM with MDA-MB-231, in the assay with DLD-1, in the assay on PACA-2, in the assay on PC-3, with NCI-H1299 and in the assay on KATO III was 80 to 100% each time.
`CN(C)CCCNc1ncc2c(n1)-c1cccnc1Nc1cnccc1-2` [Example 50, N′-9H-dipyrido[2,3-b:4′,3′-f]pyrimido[4,5-d]azepin-2-yl-N,N-dimethylpropane-1,3-diamine]: the inhibition at 10 µM at ABL is 50 to 79%; with PACA-2 it was less than 50%; in the assay with PC-3 it was less than 50%; on ABL T315I, less than 50%; in the assay with KATO III it was less than 50%.
`CC(=O)N1CCN(c2ncc3c(n2)-c2cccnc2Nc2cnccc2-3)CC1` [Example 57, 2-(4-acetylpiperazin-1-yl)-9H-dipyrido[2,3-b:4′,3′-f]pyrimido[4,5-d]azepine]: the inhibition at 10 µM in the assay with MDA-MB-231, in the assay with DLD-1, in the assay with PACA-2, in the assay with PC-3, in the assay on NCI-H1299 and in the assay on KATO III was 80 to 100% throughout.
Take `CC(C)(C)C(=O)N1CCN(c2ncc3c(n2)-c2cccnc2Nc2cnccc2-3)CC1` [Example 58, 2-[4-(2,2-dimethylpropanoyl)piperazin-1-yl]-9H-dipyrido[2,3-b:4′,3′-f]pyrimido[4,5-d]azepine]: the inhibition at 10 µM with MDA-MB-231 was less than 50%; in the assay with DLD-1, 80 to 100%; in the assay on PACA-2, 80 to 100%; in the assay with PC-3 it was 50 to 79%; in the assay on KATO III, 50 to 79%.
Consider `c1cnc2c(c1)-c1nc(NC3CCNCC3)ncc1-c1ccncc1N2` [Example 59, N-piperidin-4-yl-9H-dipyrido[2,3-b:4′,3′-f]pyrimido[4,5-d]azepin-2-amine], for which the inhibition at 10 µM on ABL, with MDA-MB-231, in the assay with PC-3, at ABL T315I and in the assay on KATO III was 80 to 100% each time.
`Clc1cccc(CNc2ncc3c(n2)-c2cccnc2Nc2ccccc2-3)c1` [Example 61, N-(3-chlorobenzyl)-9H-pyrido[2,3-b]pyrimido[4,5-d][1]benzazepin-2-amine]: the inhibition at 10 µM in the assay with MDA-MB-231, in the assay on DLD-1, with PC-3, in the assay on NCI-H1299 and in the assay on KATO III was less than 50% each time.
As for `Fc1ccc(CNc2ncc3c(n2)-c2cccnc2Nc2ccccc2-3)c(F)c1` [Example 64, N-(2,4-difluorobenzyl)-9H-pyrido[2,3-b]pyrimido[4,5-d][1]benzazepin-2-amine], the inhibition at 10 µM is 50 to 79% on ABL; less than 50% in the assay with MDA-MB-231; less than 50% in the assay on DLD-1; less than 50% in the assay on PC-3; less than 50% on ABL T315I; less than 50% in the assay on NCI-H1299. Also, the inhibition at 10 µM with KATO III was less than 50%.
In the case of `CC(=O)N1CCN(c2ncc3c(n2)-c2cccnc2Nc2ccccc2-3)CC1` [Example 68, 2-(4-acetylpiperazin-1-yl)-9H-pyrido[2 ,3-b]pyrimido[4,5-d][1]benzazepine], the inhibition at 10 µM was 80 to 100% with MDA-MB-231; 80 to 100% in the assay with DLD-1; 80 to 100% with PACA-2; 80 to 100% in the assay on PC-3; 50 to 79% with NCI-H1299; 80 to 100% with KATO III.
For the compound `Fc1ccc(CNc2ncc3c(n2)-c2ccccc2Nc2cnccc2-3)c(F)c1` [Example 69, N-(2,4-difluorobenzyl)-9H-pyrido[3,4-b]pyrimido[5,4-d][1]benzazepin-2-amine], the inhibition at 10 µM with MDA-MB-231, in the assay on DLD-1, in the assay on PACA-2, in the assay with PC-3, in the assay with NCI-H1299 and in the assay with KATO III was 80 to 100% each time.
As to `Clc1cccc(CNc2ncc3c(n2)-c2ccccc2Nc2cnccc2-3)c1` [Example 70, N-(3-chlorobenzyl)-9H-pyrido[3,4-b]pyrimido[5,4-d][1]benzazepin-2-amine], the inhibition at 10 µM with MDA-MB-231, with DLD-1, in the assay on PACA-2, with PC-3, in the assay on NCI-H1299 and in the assay on KATO III was 80 to 100% in each case.
